Reference: patent US7723070B2, “Overexpression of aminoacyl-tRNA synthetases for efficient production of engineered proteins containing amino acid analogues” (California Institute of Technology, priority 2000, dated 2010)
Entries after “also recorded” stand apart in the source; their conditions may differ.

Key:
[1] = test system: E. coli strain CAG18491/pQE15/pREP4; test: Translational activity: mDHFR synthesis in methionine-depleted cultures of conventional host; type: cell-based; details: for translational activity: capacity to support mDHFR synthesis in absence of methionine (SDS-PAGE): methionine-depleted minimal medium, IPTG induction; for Protein Yield: mDHFR from 1-liter cultures supplemented with the analogue; for mDHFR produced relative to cultures supplemented with methionine: control yield = methionine
Description: Buffers and media were prepared according to standard protocols (Sambrook, J.; Fritsch, E. F.; Maniatis, T. Molecular Cloning: A Laboratory Manual, 2nd Ed. Cold Spring Harbor Laboratory Press, Cold Spring Harbor, N.Y. 1989; Ausubel, F. M.; Brent, K.; Kingston, K. E.; Moore, D. D.; Scidman, J. G.; Smith, J. A.; Struhl, K. Current Protocols in Molecular Biology, John Wiley & Sons, NY 1995). The E. coli methionine auxotroph CAG18491 (λ^−, rph-1, metE3079.:Tn10) (obtained from the Yale E. coli Genetic Stock Center), was transformed with plasmids pREP4 and pQE15 (Qiagen, Valencia, Calif.), to obtain the expression host CAG18491/pQE15/pREP4.
M9AA medium (50 mL) supplemented with 1 mM MgSO4, 0.2 wt % glucose, 1 mg/L thiamine chloride and the antibiotics ampicillin (200 mg/L) and kanamycin (25 mg/L) was inoculated with 2 mL of an overnight culture of CAG18491/pQE15/pREP4. When the turbidity of the culture reached an optical density at 600 nm (OD600) of 0.8, a medium shift was performed. The cells were sedimented for 10 min at 3030 g at 4° C., the supernatant was removed, and the cell pellet was washed twice with 20 mL of M9 medium. Cells were resuspended in 50 mL of the M9AA medium described above, without methionine. […] (0.31 mM), respectively. A culture lacking methionine (or any analogue) served as the negative control. Protein expression was induced by addition of isopropyl-β-D-thiogalactopyranoside (IPTG) to a final concentration of 0.4 mM. Samples were taken every hour for 4 h, the OD600 was measured, and the samples were sedimented. After the supernatant was decanted, the cell pellets were resuspended, in 20 μL distilled H2O.
Protein expression was monitored by SDS polyacrylamide gel electrophoresis (12% acrylamide running gel, 12 mA, 14 h), using a normalized OD600 of 0.2 per sample.
The example presented is for medium supplemented with 3. M9AA medium (100 mL) supplemented with 1 mM MgSO4 0.2 wt % glucose, 1 mg/L thiamine chloride and the antibiotics ampicillin (200 mg/L) and kanamycin (25 mg/L) was inoculated with E. coli strain CAG18491/pQE15/pREP4 and grown overnight at 37° C. This culture was used to inoculate 900 mL M9AA medium supplemented as described. The cells were grown to an OD600 of 0.94 and the medium shift was performed as described for the small scale experiments, followed by addition of 40 mL of 1 mg/mL DL-homopropargylglycine (3). IPTG (0.4 mM) was added, and samples were taken at 1 hour intervals. OD600 was measured, the samples were sedimented and decanted, and the cell pellets were resuspended in 20 μL distilled H2O. Protein expression was monitored by SDS polyacrylamide gel electrophoresis (12% acrylamide running gel, 12 mA, 15 h).
Approximately 4.5 h after induction, cells were sedimented (9,800 g, 10 min, 4° C.) and the supernatant was removed. The pellet was placed in the freezer overnight. The cells were thawed for 30 min at 37° C., 30 mL of buffer (6 M guanidine-HCl, 0.1 M NaH2PO4, 0.01 M Tris, pH 8) was added and the mixture was shaken at room temperature for 1 h. […] The supernatant was loaded on 10 mL of resin which was then washed with 50 mL of guanidine buffer followed by 25 mL of urea buffer (8 M urea, 0.1 M NaH2PO4 and 0.01 M Tris, pH 8). Similar urea buffers were used for three successive 25 mL washes at pH values of 6.3, 5.9 and 4.5, respectively. […] These washes were combined and dialyzed (Spectra/Por membrane 1, MWCO=6-8 kDa) against running distilled water for 4 days, followed by batchwise dialysis against doubly distilled water for one day. […] Amino acid analyses, electrospray mass spectrometry and N-terminal protein sequencing was performed on the mDHFR isolated.

[2] = test system: B834(DE3) or CAG18491 hosts with pQE15/pREP4 or pQE15-MRS/pREP4; test: Translational activity: mDHFR synthesis, statements covering several bacterial hosts (with pQE15 or pQE15-MRS); type: cell-based, E. coli; details: for target protein mDHFR in SDS-PAGE: amino acids at 60 mg/liter, both bacterial hosts; for translational activity / incorporation in hosts with increased MetRS activity: hosts overproducing MetRS
Description: Methionine analogues were synthesized via alkylation of diethylacetamidomalonate, as previously described (As described in Example I, infra; J. C. M. van Hest, D. A. Tirrell, FEBS Lett. 1998, 428, 68-70). Cultures of B834(DE3)/pQE15-MRS/pREP4 or B834(DE3)/pQE15/pREP4 or CAG18491/pQE15-MRS/pREP4 or CAG18491/pQE15/pREP4 in M9AA media were grown to an optical density of 0.90, and the cells were sedimented by centrifugation. The M9AA medium was prepared by supplementing sterile M9 medium with […] of each of the amino acids, 1 mM MgSO4, 0.2 wt % glucose, 1 mg/ml thiamine chloride, and […] calcium chloride. The antibiotics ampicillin and kanamycin were added at concentrations of 200 mg/l and 35 mg/l, respectively.
Cells were washed three times with M9 salts and resuspended to an optical density of 0.90 in M9 test media containing 19 amino acids plus 1) neither methionine nor analogue (negative control); 2) methionine (60 mg/liter, positive control); or 3) an analogue of interest (60 mg/liter). To test the effect of increasing the level of supplementation of the analogues, a set of experiments was also conducted in which the medium was supplemented with 500 mg/liter of methionine or the amino acid analogue. Expression of mDHFR was induced by addition of 0.4 mM isopropyl β-D-thiogalactopyranoside (IPTG), and protein synthesis was monitored after 4.5 hours.

| Compound | translational activity: capacity to support mDHFR synthesis in absence of methionine (SDS-PAGE) [1] | target protein mDHFR in SDS-PAGE [2] | translational activity / incorporation in hosts with increased MetRS activity [2] | Protein Yield [1] [mg/L] | mDHFR produced relative to cultures supplemented with methionine [1] | substitution/replacement of methionine by analogue (1H NMR, amino acid analysis, N-terminal sequencing together) ([1]; mDHFR) |
| --- | --- | --- | --- | --- | --- | --- |
| C/C=C\CC(N)C(=O)O (racemic) [Analogue 4, cis-2-amino-4-hexenoic acid] | prevented incorporation; also recorded: neither 4 nor 5 were indicated to be translationally active | not observed | permits incorporation | – | – | – |
| C/C=C/CC(N)C(=O)O (racemic) [Analogue 5, trans-2-amino-4-hexenoic acid] | neither 5 or 11 support measurable protein synthesis; also recorded: prevented incorporation; also recorded: neither 4 nor 5 were indicated to be translationally active; also recorded: did not support measurable levels of protein synthesis | – | permits incorporation | 0 | – | – |
| CCCCCC(N)C(=O)O (racemic) [Analogue 7, DL-2-aminoheptanoic acid] | neither norvaline (8) nor 7 showed translational activity | not observed | permits incorporation | – | – | – |
| 2-butynylglycine [Analogue 11] | neither 5 or 11 support measurable protein synthesis; also recorded: not detected; also recorded: did not support measurable levels of protein synthesis | – | permits incorporation | 0 | – | – |
| CCC[C@H](N)C(=O)O [Analogue 8, L-norvaline] | neither norvaline (8) nor 7 showed translational activity | not observed | permits incorporation | – | – | – |
| C#CCCC(N)C(=O)O (racemic) [Analogue 3, DL-homopropargylglycine] | exhibit translational activity sufficient to allow protein synthesis; also recorded: serve effectively as methionine surrogates; also recorded: can be detected | detected | – | 35 | equivalent | near-quantitative replacement of methionine |
| C=CCC(N)C(=O)O (stereo not drawn) [Analogue 12, allylglycine] | – | not observed | permits incorporation | – | – | – |
| C=CCCC(N)C(=O)O (racemic) [Analogue 2, DL-2-amino-5-hexenoic acid] | exhibit translational activity sufficient to allow protein synthesis; also recorded: serve effectively as methionine surrogates; also recorded: can be detected | detected | – | 10 | 28% | – |
| CSCC[C@H](N)C(=O)O [Analogue 1, L-methionine, reference compound] | can be detected | detected | – | 35 | – | – |
| CCCC[C@H](N)C(=O)O [Analogue 9, L-norleucine] | confirmed; also recorded: does support protein synthesis; also recorded: can be detected | detected | – | 20 | 57% | – |
